From article PMC9149975, “The diaryl-imidazopyridazine anti-plasmodial compound, MMV652103, exhibits anti-breast cancer activity” (EXCLI Journal, 2022) come the findings set out here.

Structures are written as SMILES. Read-outs that look alike come from different tables or passages of the source.

For experiment [1], the system named is MCF7 cells. In words: Scratch motility assay, MCF7. The settings on record: IC50 and 2 x IC50; 3, 6, 9 h. The format is cell-based, human. The protocol:
Cells were grown to 100 % confluence in 12-well tissue culture plates and the following day a sterile 2 µl pipette tip was used to make a vertical scratch in the cell monolayer of each well and the cells treated with mitomycin C (M4287; Sigma Aldrich) at a final concentration of 10 μg/ml to inhibit proliferation. Cells were subsequently treated with MMV652103 or vehicle and imaged at 0, 3, 6 and 9 h post wound formation and ImageJ v1.50i software was used to calculate the area of the scratch (Schneider et al., 2012[73]). The total areas migrated was determined by subtracting the area for a specific time point from the area measured at 0 h.

Experiment [2] has as its system MCF7 cells. In words: Western blotting / immunofluorescence, MCF7. The format is cell-based, human. Here is the method:
(§1) Cells were exposed to MMV652103 or vehicle for 24 and 48 h. Cell lysates were prepared, and western blotting performed as previously described (Abrahams et al., 2008[1]). Primary antibodies were: PARP1/2 (sc-7150, 1:1000), p53 (sc-126, 1:1000), p21 (sc-756, 1:1000), cyclin B1 (H-433) (sc-752, 1:500) from Santa Cruz (California, USA), phospho-H2AX (#2577, 1:1000), phospho-p38 MAP Kinase (#9211, 1:1000), LC3 (#2775, 1:1000), caspase-7 (#9492, 1:1000), caspase-8 (#9746, 1:1000), caspase-9 (#9502S, 1:1000), from Cell Signaling (Boston, MA, USA), PUMA (ab9643, 1:1000) (AbCam, Cambridge, MA, USA) and p38 (M0800, 1:5000) from Sigma (St. Louis, MO, USA). Total p38 was used as a loading control because although its activity is modulated by phosphorylation, its total levels remain unaltered in response to stimuli (Raingeaud et al., 1995[68]). Densitometry readings were obtained using ImageJ v1.50i58 and protein expression levels were represented as a ratio of protein of interest/p38 loading control normalized to the vehicle treated control sample where appropriate. All blots are representative of at least three independent experiments.
(§2) Cells on glass coverslips were treated with either MMV652103 or vehicle for 24 and 48 h and processed for immunofluorescence with antibodies against phospho H2A.X (#2577) (1:500) or LC3B (#2775) (1:200) (Cell Signaling Technology) as previously described (Bleloch et al., 2019[8]). Cells were imaged using confocal microscopy (Carl Zeiss LSM 880 with Fast Airyscan module confocal (Oberkochen, Germany)). Multiple z layers were acquired with […] step width. Images were processed using ZEN 2012 imaging software (Carl Zeiss) and maximum intensity projections were generated. For quantification, mean fluorescence was measured from at least 20 fields of view per treatment condition and pooled from three independent replicates.

For a further experiment, the target named is T1, PIK3C2B (Homo sapiens, UniProt O00750).
T1 construct: purchased Carna Biosciences Inc; Invitrogen Corporation
T1 sequence (O00750 whole entry): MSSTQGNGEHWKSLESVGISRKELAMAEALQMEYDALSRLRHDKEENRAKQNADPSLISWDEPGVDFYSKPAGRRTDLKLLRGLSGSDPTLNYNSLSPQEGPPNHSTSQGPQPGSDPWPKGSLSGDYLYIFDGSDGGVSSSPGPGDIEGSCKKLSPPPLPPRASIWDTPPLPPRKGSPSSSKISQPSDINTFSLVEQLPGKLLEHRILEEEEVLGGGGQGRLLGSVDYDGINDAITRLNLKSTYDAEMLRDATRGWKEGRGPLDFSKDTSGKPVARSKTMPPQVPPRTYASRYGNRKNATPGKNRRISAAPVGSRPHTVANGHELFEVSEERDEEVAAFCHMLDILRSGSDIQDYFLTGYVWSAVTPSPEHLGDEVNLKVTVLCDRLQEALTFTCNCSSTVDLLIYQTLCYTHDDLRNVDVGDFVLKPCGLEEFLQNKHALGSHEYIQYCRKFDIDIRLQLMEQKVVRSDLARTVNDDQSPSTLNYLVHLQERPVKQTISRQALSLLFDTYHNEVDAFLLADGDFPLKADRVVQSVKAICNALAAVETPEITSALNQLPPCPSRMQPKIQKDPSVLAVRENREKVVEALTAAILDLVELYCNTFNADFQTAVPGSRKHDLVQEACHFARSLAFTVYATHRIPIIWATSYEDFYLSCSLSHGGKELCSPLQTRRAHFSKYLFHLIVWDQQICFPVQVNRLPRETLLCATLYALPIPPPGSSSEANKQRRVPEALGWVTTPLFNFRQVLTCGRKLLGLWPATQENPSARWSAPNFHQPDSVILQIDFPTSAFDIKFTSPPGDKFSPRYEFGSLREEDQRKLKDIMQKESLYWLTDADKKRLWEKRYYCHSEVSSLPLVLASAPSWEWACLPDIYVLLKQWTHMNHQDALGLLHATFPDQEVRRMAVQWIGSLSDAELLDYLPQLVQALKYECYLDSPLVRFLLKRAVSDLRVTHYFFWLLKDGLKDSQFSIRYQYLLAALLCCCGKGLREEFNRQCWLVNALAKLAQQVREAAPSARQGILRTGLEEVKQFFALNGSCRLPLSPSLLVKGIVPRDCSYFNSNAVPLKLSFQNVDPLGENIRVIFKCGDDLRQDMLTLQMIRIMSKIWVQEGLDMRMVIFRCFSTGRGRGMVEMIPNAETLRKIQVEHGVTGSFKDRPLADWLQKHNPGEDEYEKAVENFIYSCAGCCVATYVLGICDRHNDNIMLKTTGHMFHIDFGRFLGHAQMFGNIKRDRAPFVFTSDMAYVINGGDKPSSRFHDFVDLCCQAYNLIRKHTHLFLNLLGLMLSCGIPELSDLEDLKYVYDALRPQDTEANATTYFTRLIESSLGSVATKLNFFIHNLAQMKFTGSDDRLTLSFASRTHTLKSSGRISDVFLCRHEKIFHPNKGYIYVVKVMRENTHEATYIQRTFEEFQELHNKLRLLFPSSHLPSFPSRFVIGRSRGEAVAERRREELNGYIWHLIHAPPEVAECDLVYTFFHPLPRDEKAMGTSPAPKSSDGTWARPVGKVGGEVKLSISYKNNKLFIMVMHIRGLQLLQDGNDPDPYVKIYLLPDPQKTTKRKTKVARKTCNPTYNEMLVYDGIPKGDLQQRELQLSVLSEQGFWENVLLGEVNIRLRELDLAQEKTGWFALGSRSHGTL
In words: ADP-Glo lipid kinase assay, PIK3C2B. The format is biochemical. The settings on record: 10 µM compound. In general terms: ADP-Glo first removes unused ATP, then detects ADP through luciferase.

Experiment [3] has as its system MCF7 cells. The experiment can be described thus: Cell cycle analysis by flow cytometry. The format is cell-based, human. Conditions: IC50, 24 and 48 h. The protocol: Log-phase MCF7 cells were exposed to MMV652103 for 24 and 48 h and both adherent and floating cells were collected, processed as previously described and analyzed using a Becton Dickinson FACSCalibur flow cytometer (Becton Dickinson, New Jersey, USA) with a 488 nm coherent laser (Bleloch et al., 2019[8]). The data were acquired using CellQuest Pro version 5.2.1. software (Becton Dickinson) and the analyses were done using ModFit version 2.0. software (Verity Software House Inc, Maine, USA).
A general note: Flow cytometry measures light scatter and fluorescence of single cells or particles in a stream.

For experiment [4], the system named is MCF7 (breast cancer cell line). The experiment can be described thus: MTT cytotoxicity assay, MCF7. Conditions: for IC50: Homo sapiens. It counts as cell-based, human. From the text:
Human estrogen-receptor positive (ER+) breast adenocarcinoma cell lines, MCF7 and T47D, were maintained in Roswell Park Memorial Institute-1640 medium (Sigma Aldrich, Missouri, USA) and the human epidermal growth factor receptor 2 positive (HER2+) BT474, and triple negative (TNBC) MDA-MB-231 and MDA-MB-468 cells were maintained in Dulbecco's Modified Eagle's Medium (DMEM) (Sigma Aldrich, Missouri, USA). FG0 human skin fibroblasts (provided by Associate Professor Denver Hendricks, University of Cape Town) were maintained in DMEM while the normal breast epithelial cell line MCF12A was maintained in DMEM:nutrient mixture F-12 (DMEM/F12; 1:1; Sigma Aldrich, Missouri, USA), supplemented with 20 ng/ml epidermal growth factor, 100 ng/ml cholera toxin, 500 ng/ml hydrocortisone and 10 µg/ml insulin. All media were supplemented with 10 % fetal bovine serum, 100 U/ml penicillin and 100 µg/ml streptomycin. Cells were maintained at 37 °C in a 5 % CO2 and 95 % air-humidified incubator. Media was replaced every 2-3 days and cells were routinely tested for mycoplasma infection.
(§3) Cells (3.5×10^3-6×10^3 / well) were seeded in 96-well plates and treated at a 60-70 % confluence with a range of concentrations (0-10 μM) of test compounds or vehicle for 48 h. Cell viability was measured using the 3-(4,5-dimethylthiazol-2-yl)-2,5-diphenyl-trazolium bromide (MTT) assay (11465007001; Sigma Aldrich) according to the manufacturer's instructions. Mean cell viability was calculated as a percentage of the mean vehicle control. A minimum of three independent experiments in quadruplicate were performed from which the IC50 was determined from sigmoidal plots using GraphPad Prism version 6.0 (GraphPad Software, California, USA). The selectivity index (SI) was determined by dividing the IC50 of a non-malignant cell line by the IC50 of a cancer cell line.
Briefly, the cells were treated with a range of concentrations (2 - 20 µM) of each compound or vehicle (DMSO) for 48 h and MTT assays were performed. […] Based on the promising IC50 and SI values obtained for MMV652103, it was chosen for further studies.
(Formazan colour is commonly taken as a measure of viable cells.)

For the next experiment, the system named is T47D cells. The experiment can be described thus: Western blotting / immunofluorescence, T47D. The format is cell-based, human. Here is the method:
as §1, §2

The subject of experiment [5] is MDA-MB-231 (TNBC) breast cancer cells. The experiment can be described thus: MTT cytotoxicity assay, MDA-MB-231. It counts as cell-based. The settings on record: Homo sapiens. Here is the method: Human estrogen-receptor positive (ER+) breast adenocarcinoma cell lines, MCF7 and T47D, were maintained in Roswell Park Memorial Institute-1640 medium (Sigma Aldrich, Missouri, USA) and the human epidermal growth factor receptor 2 positive (HER2+) BT474, and triple negative (TNBC) MDA-MB-231 and MDA-MB-468 cells were maintained in Dulbecco's Modified Eagle's Medium (DMEM) (Sigma Aldrich, Missouri, USA). […]
as §3

In the next experiment the target is T2, PI4K2A (Homo sapiens, UniProt Q9BTU6).
T2 construct: purchased Carna Biosciences Inc; Invitrogen Corporation
T2 sequence (Q9BTU6 whole entry): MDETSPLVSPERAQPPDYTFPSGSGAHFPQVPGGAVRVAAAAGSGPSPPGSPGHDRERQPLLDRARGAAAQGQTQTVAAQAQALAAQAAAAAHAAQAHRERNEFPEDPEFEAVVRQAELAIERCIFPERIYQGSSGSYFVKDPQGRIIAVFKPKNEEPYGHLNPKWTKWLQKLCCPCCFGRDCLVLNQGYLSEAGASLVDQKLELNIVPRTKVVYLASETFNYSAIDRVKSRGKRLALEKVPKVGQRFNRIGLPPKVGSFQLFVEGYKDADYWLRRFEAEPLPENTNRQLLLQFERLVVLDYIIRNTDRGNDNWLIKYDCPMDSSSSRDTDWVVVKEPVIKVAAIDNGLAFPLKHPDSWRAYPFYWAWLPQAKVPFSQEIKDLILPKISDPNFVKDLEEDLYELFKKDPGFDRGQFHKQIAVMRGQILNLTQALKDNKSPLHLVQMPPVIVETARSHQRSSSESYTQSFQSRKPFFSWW
The experiment can be described thus: ADP-Glo lipid kinase assay, PI4K2A. The settings on record: 10 µM compound. It counts as biochemical.

On to `CS(=O)(=O)c1ccc(-c2cnc3ccc(-c4cccc(S(C)(=O)=O)c4)nn23)cc1` [MMV652103], for which, in the experiment on MCF7 cells [1], the MCF7 cell migration entry is given as “significant reduction”. In the experiment with MCF7 cells [2] (western blot), the “LC3 to LC3II conversion” value is “led to the conversion of LC3 to LC3II”; the “cyclin A and cyclin B1 levels” value is given as “reduced”; the “levels of p53, MCF7” value is “dose- and time-dependent increase”; the “levels of phosphorylated p38, MCF7” value was “increased”. Moreover, in the experiment with MCF7 cells [2] (western blot), the “p21 levels, MCF7” value is “increased”. In the experiment with MCF7 cells [2] (½ IC50 and IC50, 24 and 48 h), the “levels of γH2AX, MCF7” value was “dose- and time-dependent increase”. The “levels of PUMA, cleaved caspase-8, caspase-9, caspase-7 and PARP” value in the experiment with MCF7 cells [2] (½ IC50 and IC50, western blot) was “increased levels”. Also, the remaining activity (usually what remains of the control signal, in per cent) at 10 µM at PIK3C2B worked out at 31%. In addition, the “effect on MCF7 cell cycle progression” value in the experiment on MCF7 cells [3] was “induced sub-G1 peaks and arrested cells in G1”. The 50% inhibitory concentration (IC50) (in general, the midpoint of a concentration-inhibition curve) in experiment [4] (MCF7, Fig 2C summary, MTT 48 h, read-out: IC50 ± SEM MCF7) was 2200 ± 1150 nM. Besides, the half-maximal inhibitory concentration (IC50) in experiment [4] (MCF7, MTT, 48 h, read-out: Cytotoxicity assays (MTT) IC50 MCF7) amounted to 2200 nM. Moreover, in experiment [4] (average of MCF7 and T47D, read-out: average IC50 in the ER+ cell lines MCF7 and T47D), the 50% inhibitory concentration (IC50) came out at 2500 nM. For the same compound, the “SI IC50 MCF12A / IC50 MCF7” value in experiment [4] (selectivity index, MCF12A vs MCF7) was 3.02. In the experiment with T47D cells (western blot), the “levels of phosphorylated p38, T47D” value is “increased” and the “p21 levels, T47D” value is on record as “increased”. In addition, the “levels of p53, T47D” value in the experiment on T47D cells (western blot, mutant non-functional p53) is “no effect”. In addition, in the experiment with T47D cells (½ IC50 and IC50, 24 and 48 h), the “levels of γH2AX, T47D” value is “dose- and time-dependent increase”. In addition, the IC50 in experiment [5] (Fig 2C summary, MTT 48 h, read-out: IC50 ± SEM MDA-MB-231) came out at 14300 ± 1030 nM. The IC50 in experiment [5] (MTT, 48 h, read-out: IC50 MDA-MB-231) was 14300 nM. At PI4K2A, this compound returned a remaining activity at 10 µM of 42%.
